ChEMBL document CHEMBL1201862, “PubChem BioAssay data set” (2004)
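48-hour exposure; five concentrations; linearly interpolated endpoints. The concentration for 50% growth inhibition is given as GI50.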 Active and inactive are the calls of the source. No stated cut-off is given here; in the data, active = GI50 up to about 1.1 µM and inactive = higher.

What was measured:
Test in all cases: NCI anticancer screen, dose series, 48 h
NCI-H522 = test system: NCI-H522
MOLT-4 = test system: MOLT-4
TK-10 = test system: TK-10
PC-3 = test system: PC-3
HT-29 = test system: HT-29
M14 = test system: M14
SK-OV-3 = test system: SK-OV-3
MDA-MB-231 = test system: MDA-MB-231
Hs-578T = test system: Hs-578T
UACC-62 = test system: UACC-62
CCRF-CEM = test system: CCRF-CEM
RPMI-8226 = test system: RPMI-8226
MDA-N = test system: MDA-N
SF-295 = test system: SF-295
SK-MEL-5 = test system: SK-MEL-5
RXF 393 = test system: RXF 393
SNB-75 = test system: SNB-75
OVCAR-3 = test system: OVCAR-3

SMILES | GI50 (NCI-H522) | GI50 (MOLT-4) | GI50 (TK-10) | GI50 (PC-3) | GI50 (HT-29) | GI50 (M14) | GI50 (SK-OV-3) | GI50 (MDA-MB-231) | GI50 (Hs-578T) | GI50 (UACC-62) | GI50 (CCRF-CEM) | GI50 (RPMI-8226) | GI50 (MDA-N) | GI50 (SF-295) | GI50 (SK-MEL-5) | GI50 (RXF 393) | GI50 (SNB-75) | GI50 (OVCAR-3)
COC(=O)/C=C1/OC(c2ccccc2)=CC1=O | 16.9 µM (inactive) | 6.38 µM (inactive) | 18.6 µM (inactive) | 20.4 µM (inactive) | 18.5 µM (inactive) | 23.3 µM (inactive) | 17.5 µM (inactive) | 17 µM (inactive) | 22.9 µM (inactive) | 18.6 µM (inactive) | 6.65 µM (inactive) | 6.25 µM (inactive) | 17.3 µM (inactive) | 14.2 µM (inactive) | 19.9 µM (inactive) | 14.5 µM (inactive) | 15.5 µM (inactive) | 17.9 µM (inactive)
COC(=O)[C@]12CC[C@H]3CN(C(=O)OCc4ccccc4)[C@H]([C@H]31)[C@H](c1ccccc1)N2 | 52.1 µM (inactive) | 33 µM (inactive) | > 100 µM (inactive) | 43.2 µM (inactive) | 74.8 µM (inactive) | 70 µM (inactive) | > 100 µM (inactive) | 59.3 µM (inactive) | > 100 µM (inactive) | 55 µM (inactive) | 41.3 µM (inactive) | 36.1 µM (inactive) | 57.3 µM (inactive) | 58.1 µM (inactive) | 22.9 µM (inactive) | 59.6 µM (inactive) | > 100 µM (inactive) | 74.1 µM (inactive)
CC1=NN(C(=O)CC(=O)Nc2cccc(C)c2)C(=O)C1/N=N/c1ccc(S(=O)(=O)CCOS(=O)(=O)O)cc1 (stereo not given) | 0.291 µM (active) | 0.406 µM (active) | 13.1 µM (inactive) | 0.359 µM (active) | 0.767 µM (active) | 0.484 µM (active) | 0.326 µM (active) | 0.275 µM (active) | 4.18 µM (inactive) | 1.81 µM (inactive) | 0.422 µM (active) | 1.86 µM (inactive) | 0.309 µM (active) | 2.82 µM (inactive) | 0.369 µM (active) | 1.62 µM (inactive) | 0.805 µM (active) | 3.65 µM (inactive)
CCOC(=O)C(Cl)(NC(=O)c1c(F)c(F)c(F)c(F)c1F)C(F)(F)F (stereo not given) | 19.5 µM (inactive) | > 100 µM (inactive) | > 100 µM (inactive) | > 100 µM (inactive) | > 100 µM (inactive) | > 100 µM (inactive) | > 100 µM (inactive) | > 100 µM (inactive) | > 100 µM (inactive) | > 100 µM (inactive) | > 100 µM (inactive) | > 100 µM (inactive) | > 100 µM (inactive) | > 100 µM (inactive) | > 100 µM (inactive) | > 100 µM (inactive) | > 100 µM (inactive) | > 100 µM (inactive)
CN(C)c1ccc(C2SCC(=O)N2c2nc3cc4sc(N5C(=O)CSC5c5ccc(N(C)C)cc5)nc4cc3s2)cc1 (stereo not given) | 3.76 µM (inactive) | 3.37 µM (inactive) | > 100 µM (inactive) | 38.1 µM (inactive) | 17 µM (inactive) | 51.3 µM (inactive) | 85.7 µM (inactive) | > 51.8 µM (inactive) | 47.2 µM (inactive) | > 72.3 µM (inactive) | 3.41 µM (inactive) | 19.5 µM (inactive) | 45.2 µM (inactive) | 46.6 µM (inactive) | 32 µM (inactive) | > 100 µM (inactive) | > 90.6 µM (inactive) | 48.3 µM (inactive)
CN1N=C(c2ccncc2)OC1c1ccc(Cl)cc1Cl (stereo not given) | 72.6 µM (inactive) | 42 µM (inactive) | > 100 µM (inactive) | 63.1 µM (inactive) | 59.2 µM (inactive) | 95.3 µM (inactive) | 93.3 µM (inactive) | 87.9 µM (inactive) | > 100 µM (inactive) | 22.8 µM (inactive) | 48.6 µM (inactive) | 72.8 µM (inactive) | > 100 µM (inactive) | 66.2 µM (inactive) | 65.6 µM (inactive) | > 100 µM (inactive) | 12.6 µM (inactive) | 64.3 µM (inactive)
CCC(C)C1NC(=O)C(NC(=O)C(CC(C)C)N(C)C(=O)[C@@H]2CC(O)CN2C(=O)[C@H](C)O)C(C)OC(=O)[C@H](Cc2ccc(OC)cc2)N(C)C(=O)[C@@H]2CCCN2C(=O)[C@H](CC(C)C)NC(=O)C(C)C(=O)[C@H](C(C)C)OC(=O)CC1O (stereo not given in full) | 0.15 µM (active) | 0.102 µM (active) | 0.676 µM (active) | 0.252 µM (active) | 0.134 µM (active) | 0.0935 µM (active) | 0.179 µM (active) | 0.349 µM (active) | 0.0266 µM (active) | 0.0542 µM (active) | 0.191 µM (active) | 0.249 µM (active) | 0.133 µM (active) | 0.225 µM (active) | 0.0359 µM (active) | 0.0638 µM (active) | 0.141 µM (active) | 0.232 µM (active)
COC(=O)CCc1cc(O)c2c(c1)C(C(=O)OC)C(c1ccc(O)c(O)c1)O2 (stereo not given) | 12.6 µM (inactive) | 5.09 µM (inactive) | 53.1 µM (inactive) | 19.6 µM (inactive) | 27.2 µM (inactive) | 13.9 µM (inactive) | 33.6 µM (inactive) | 11.7 µM (inactive) | 25.2 µM (inactive) | 8.15 µM (inactive) | 3.21 µM (inactive) | 22 µM (inactive) | 1.9 µM (inactive) | 17.7 µM (inactive) | 4.06 µM (inactive) | 18.7 µM (inactive) | 2.35 µM (inactive) | 3.71 µM (inactive)
CC(C)=CCc1c(O)c(CC=C(C)C)c2oc(-c3ccc(O)cc3O)c(CC=C(C)C)c(=O)c2c1O | 7.31 µM (inactive) | 3.33 µM (inactive) | 8.85 µM (inactive) | 6.46 µM (inactive) | 7.96 µM (inactive) | 8.83 µM (inactive) | 13.3 µM (inactive) | 12.6 µM (inactive) | 7.76 µM (inactive) | 7.14 µM (inactive) | 2.1 µM (inactive) | 3.43 µM (inactive) | 7.82 µM (inactive) | 7.45 µM (inactive) | 10.8 µM (inactive) | 4.99 µM (inactive) | 10.6 µM (inactive) | 7.1 µM (inactive)
COc1cc(/N=C\N(C)C)c2ncccc2c1 | 68.9 µM (inactive) | 35.7 µM (inactive) | > 100 µM (inactive) | 90.6 µM (inactive) | 69.8 µM (inactive) | 48.8 µM (inactive) | > 100 µM (inactive) | 35.2 µM (inactive) | 98.4 µM (inactive) | 54.1 µM (inactive) | 28 µM (inactive) | 46.5 µM (inactive) | 20.4 µM (inactive) | 93.3 µM (inactive) | 52.1 µM (inactive) | 75.3 µM (inactive) | 52.8 µM (inactive) | 56.6 µM (inactive)
CC(C)=CCC/C(C)=C/CC/C(C)=C/CC(CO)N(C)CC/C=C(\C)CCC=C(C)C (stereo not given) | 2.09 µM (inactive) | 2.39 µM (inactive) | 9.53 µM (inactive) | 7.96 µM (inactive) | 3.5 µM (inactive) | 1.79 µM (inactive) | 14.9 µM (inactive) | 9.86 µM (inactive) | 5.31 µM (inactive) | 16.1 µM (inactive) | 3.03 µM (inactive) | 3.09 µM (inactive) | 3.43 µM (inactive) | 7.1 µM (inactive) | 8.39 µM (inactive) | 4.82 µM (inactive) | 12 µM (inactive) | 14.2 µM (inactive)
c1ccc2[nH]c3[nH]c4[nH]c5ccccc5[nH]c4[nH]c3[nH]c2c1 | > 100 µM (inactive) | > 100 µM (inactive) | > 100 µM (inactive) | > 100 µM (inactive) | > 100 µM (inactive) | > 100 µM (inactive) | > 100 µM (inactive) | > 100 µM (inactive) | 60.7 µM (inactive) | > 100 µM (inactive) | > 100 µM (inactive) | > 100 µM (inactive) | > 100 µM (inactive) | 66.2 µM (inactive) | > 100 µM (inactive) | > 100 µM (inactive) | 21 µM (inactive) | > 100 µM (inactive)
O=C1C(=O)c2c(oc(=O)c3ccccc23)-c2ccccc21 | 21.2 µM (inactive) | > 25 µM (inactive) | > 25 µM (inactive) | > 25 µM (inactive) | 17.5 µM (inactive) | > 25 µM (inactive) | > 25 µM (inactive) | > 25 µM (inactive) | > 25 µM (inactive) | > 25 µM (inactive) | > 25 µM (inactive) | 19.3 µM (inactive) | 24.4 µM (inactive) | > 25 µM (inactive) | 12.6 µM (inactive) | > 25 µM (inactive) | 16.6 µM (inactive) | 7.05 µM (inactive)
COc1ccc2cc(CNCCCCCCNCc3ccc4cc(OC)ccc4c3)ccc2c1 | 0.64 µM (active) | 0.205 µM (active) | 1.8 µM (inactive) | 0.471 µM (active) | 0.186 µM (active) | 0.169 µM (active) | 1.85 µM (inactive) | 0.465 µM (active) | 1.75 µM (inactive) | 1.46 µM (inactive) | 0.153 µM (active) | 0.208 µM (active) | 0.183 µM (active) | 0.486 µM (active) | 1.33 µM (inactive) | 1.52 µM (inactive) | 0.815 µM (active) | 0.575 µM (active)
O=C(CCCl)NN=C1NCCCN1 | > 100 µM (inactive) | > 100 µM (inactive) | > 100 µM (inactive) | > 100 µM (inactive) | > 100 µM (inactive) | > 100 µM (inactive) | > 100 µM (inactive) | > 100 µM (inactive) | > 100 µM (inactive) | > 100 µM (inactive) | > 100 µM (inactive) | > 100 µM (inactive) | > 100 µM (inactive) | > 100 µM (inactive) | > 100 µM (inactive) | > 100 µM (inactive) | > 100 µM (inactive) | > 100 µM (inactive)
